Results: patent publication US20240025924A1, “HETEROCYCLE SUBSTITUTED KETONE DERIVATIVE, AND COMPOSITION AND MEDICINAL USE THEREOF” (SHANGHAI HAIYAN PHARMACEUTICAL TECHNOLOGY CO., LTD., priority 2021, published 2024)

Columns and labels:
[1] = biological target: T1, SHP-2 enzyme (Homo sapiens, UniProt Q06124); assay: Phosphatase activity assay (Homogeneous Full Length SHP-2 Assay Kit, DiFMUP substrate); type: biochemical; settings: full length SHP-2 activated with 0.5 μM SHP-2 activating Peptide; 1 hour co-incubation; DiFMUP 50 μM, 30 min
T1 construct: Homogeneous Full Length SHP-2 Assay Kit (BPS Bioscience #79330); purchased BPS Bioscience 79330
T1 sequence (Q06124 1-593): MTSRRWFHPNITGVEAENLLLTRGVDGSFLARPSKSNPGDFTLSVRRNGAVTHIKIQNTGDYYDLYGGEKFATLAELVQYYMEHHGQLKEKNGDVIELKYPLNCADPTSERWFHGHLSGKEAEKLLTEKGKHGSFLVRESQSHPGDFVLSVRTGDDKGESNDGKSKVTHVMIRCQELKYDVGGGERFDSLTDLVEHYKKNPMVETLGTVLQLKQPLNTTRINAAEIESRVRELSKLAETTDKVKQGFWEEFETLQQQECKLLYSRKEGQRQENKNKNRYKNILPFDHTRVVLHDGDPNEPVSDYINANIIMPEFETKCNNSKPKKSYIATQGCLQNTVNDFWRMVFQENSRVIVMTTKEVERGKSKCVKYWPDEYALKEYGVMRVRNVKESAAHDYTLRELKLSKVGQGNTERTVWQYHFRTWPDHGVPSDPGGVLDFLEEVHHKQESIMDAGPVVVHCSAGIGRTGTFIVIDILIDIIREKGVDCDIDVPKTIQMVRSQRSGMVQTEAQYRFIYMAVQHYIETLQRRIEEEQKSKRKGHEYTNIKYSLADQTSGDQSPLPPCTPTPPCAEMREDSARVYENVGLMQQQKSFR
Protocol: IC50 values were assayed using Homogeneous Full Length SHP-2 Assay Kit (BPS Bioscience #79330), which uses 6,8-difluoro-4-methylumbelliferone phosphate (DiFMUP) as the reaction substrate. SHP2 enzyme solution (diluted to 0.04 ng/μL with 1*buffer) was mixed with 0.5 μM SHP-2 activating Peptide in a 1*buffer solution containing 2.5 mM DTT to activate PTP. At the same time, DMSO (0.1% (V/V)) or the compounds (concentration: 0.5 nM to 1 μM) were added, mixed and co-incubated for 1 hour. DiFMUP (50 μM, total reaction system volume of 20 μL) was added, and the reaction was started. After 30 min of incubation, the fluorescence intensity of the reaction system (excitation wavelength: 350 nm, emission wavelength: 460 nm) was measured by Tecan Infinite M1000.

[2] = test system: MV-4-11 cell; assay: Cell proliferation assay (Cell Titer-Glo); type: cell-based; settings: inhibition of MV-4-11 cell proliferation, Cell Titer-Glo on day 4
Protocol: MV 411 cells (20000 cells/well) were inoculated and cultured in 96 (Corning #3916) well plates, and the medium was 80 μL/well (IMDM with 10% fetal bovine serum (FBS), Gibco #10099-141C). After 24 hours of incubation, 20 μL of the compounds of the present invention configured to different concentrations (DMSO final concentration of 0.1% (V/V)) were added. On day 4, 60 μL of Cell Titer-Glo (Promega #G7558) was added to each well and mixed at 80 rpm, 25° C., 15 min, and the fluorescence values were detected by Victor X5 (PE).

Structure (SMILES) | IC50 [1] [µM] | IC50 ([2]; Homo sapiens, MV4-11, 96 h) [µM] | IC50 [2] [µM]
Nc1nc(N2CCC3(CC2)Cc2c(F)cccc2C3N)c(F)nc1C(=O)N1CCCn2nccc21 (centres unmarked) [Compound 78] | 0.01 | 0.218 | –
N[C@@H]1c2ccccc2CC12CCN(c1cnc(C(=O)N3CCCc4ncccc43)cn1)CC2 [Compound D1, reference compound] | 0.037 | 0.86 | –
Nc1ccc2c(c1)CCN2C(=O)c1ncc(N2CCC3(CC2)Cc2ccccc2C3N)nc1N (centres unmarked) [Compound 96] | 0.004 | 0.157 | –
COc1ccc2c(c1)C(N)C1(CCN(c3cnc(C(=O)N4CCCn5nccc54)c(N)n3)CC1)C2 (centres unmarked) [Compound 5] | 0.001 | 0.22 | –
Nc1nc(N2CCC3(CC2)Cc2ncsc2C3N)cnc1C(=O)N1CCCn2nccc21 (centres unmarked) [Compound 86] | 0.008 | 0.286 | –
COc1ccc2c(c1)C(N)C1(CCN(c3ncc(C(=O)N4Cc5sc(N)nc5C(F)(F)C4)nc3CO)CC1)C2 (centres unmarked) [Compound 119] | 0.007 | 0.005 | –
Nc1nc(N2CCC3(CC2)Cc2cc(F)ccc2C3N)cnc1C(=O)N1CCCn2nccc21 (centres unmarked) [Compound 4] | 0.001 | 0.078 | –
Cc1nc(C(=O)N2CCc3nc(N)sc3C2)c(N)nc1N1CCC2(CC1)Cc1ccccc1C2N (centres unmarked) [Compound 85] | 0.004 | 0.012 | –
Nc1nc(N2CCC3(CC2)Cc2ccc(C(F)(F)F)cc2C3N)cnc1C(=O)N1CCCn2nccc21 (centres unmarked) [Compound 22] | 0.006 | 0.078 | –
Nc1nc(N2CCC3(CC2)Cc2ccc(F)cc2C3N)cnc1C(=O)N1CCc2ncccc21 (centres unmarked) [Compound 16] | 0.005 | 0.04 | –
Nc1nc(N2CCC3(CC2)Cc2ccccc2C3N)cnc1C(=O)N1CCCc2ncccc21 (centres unmarked) [Compound 13] | 0.011 | 0.082 | –
Nc1nc(N2CCC3(CC2)Cc2ccccc2C3N)cnc1C(=O)N1CCn2nccc2C1 (centres unmarked) [Compound 37] | 0.005 | 0.172 | –
NC(=O)c1nc(C(=O)N2Cc3sc(N)nc3C(F)(F)C2)cnc1N1CCC2(CC1)Cc1ccccc1C2N (centres unmarked) [Compound 117] | 0.011 | 0.039 | –
Nc1nc2c(s1)CN(C(=O)c1cnc(N3CCC4(CC3)Cc3ccc(F)cc3C4N)c(CO)n1)CC2(F)F (centres unmarked) [Compound 118] | 0.006 | 0.005 | –
Nc1nc(N2CCC3(CC2)Cc2ccc(Cl)cc2C3N)cnc1C(=O)N1CCCn2nccc21 (centres unmarked) [Compound 2] | 0.004 | 0.024 | –
Cc1nc(C(=O)N2Cc3sc(N)nc3C(F)(F)C2)c(N)nc1N1CCC2(CC1)Cc1ccccc1C2N (centres unmarked) [Compound 65] | 0.004 | 0.005 | –
Nc1nc2c(s1)CN(C(=O)c1ncc(N3CCC4(CC3)Cc3cc(F)ccc3C4N)nc1N)CC2(F)F (centres unmarked) [Compound 129] | 0.005 | – | 0.009
Nc1nc(N2CCC3(CC2)Cc2ccccc2C3N)cnc1C(=O)N1CCc2nc(F)ccc21 (centres unmarked) [Compound 80] | 0.004 | 0.127 | –
Nc1nc(N2CCC3(CC2)Cc2cc(F)ccc2C3N)cnc1C(=O)N1CCc2nc(F)ccc21 (centres unmarked) [Compound 81] | 0.004 | 0.128 | –
NC1c2ccccc2CC12CCN(c1ncc(C(=O)N3CCc4ncsc4C3)c3nccn13)CC2 (centres unmarked) [Compound 46] | 0.029 | 0.166 | –
Nc1nc(N2CCC3(CC2)Cc2ccccc2C3N)nnc1C(=O)N1CCCn2nccc21 (centres unmarked) [Compound 45] | 0.007 | 0.176 | –
Cc1ccc2c(c1)C(N)C1(CCN(c3cnc(C(=O)N4CCc5nc(N)ccc54)c(N)n3)CC1)C2 (centres unmarked) [Compound 64] | 0.005 | 0.07 | –
Cn1cnc2c1CCCN2C(=O)c1ncc(N2CCC3(CC2)Cc2ccccc2C3N)nc1N (centres unmarked) [Compound 50] | 0.014 | 0.241 | –
Nc1ccc2c(n1)CCN2C(=O)c1ncc(N2CCC3(CC2)Cc2ccc(CO)cc2C3N)nc1N (centres unmarked) [Compound 66] | 0.009 | 0.196 | –
Cc1nc(C(=O)N2Cc3sc(N)nc3C(C)(C)C2)c(N)nc1N1CCC2(CC1)Cc1ccccc1C2N (centres unmarked) [Compound 101] | 0.018 | 0.085 | –
